The subject of series [1] is Staphylococcus aureus ATCC 6538. Nature of the series: MIC determination by broth micro dilution (Example 5). It is filed as cell-based. Conditions: ATCC6538; Staphylococcus aureus ATCC 6538, 4.5×10^3 Cfu/Ml. Here is the method:
Minimum Inhibitory Concentration (MIC) Determination by Broth Micro Dilution
(§1) Standardisation of Inoculum
The suspensions were mixed. […] The inoculums were 30 mixed.
(§2) Inoculation and Incubation
100 μl of the initial concentration of the sample was added to the first well.
Staphylococcus aureus ATCC 6538 4.5×10^3 Cfu/Ml

Series [2] relates to Salmonella enterica serovar Typhimurium ATCC 14028.
The next series can be described thus: in vitro. Conditions: human.
In series [3] the test system is Candida albicans ATCC 10231. In kind it is cell-based. As to conditions: ATCC10231. The protocol:
(§3) MIC Determination by Broth Micro Dilution
as §1
(§4) The inoculums were mixed.
as §2

The format of series [4] is cell-based. Conditions: Table 12, strain not named. The protocol: as §3, §1, §4, §2
Series [5] relates to Candida albicans NCTC 885-653. It is filed as cell-based. More on the design: unit not given beside the values. Here is the method: as §3, §1, §4, §2

In brackets after ≈: the same amount, converted by molar mass. Where two headings read alike, the source gives them in different places. Bounds are passed on as bounds.

As to `Cc1ccc(C(C)C)c(OC(=O)C[N+](C)(C)CCCCCCCCCC[N+](C)(C)CCCCCCCCCC[N+](C)(C)CC(=O)Oc2cc(C(C)C)ccc2C)c1.[Br-].[Cl-].[Cl-]` [Comparative compound 1, reference compound], in series [1], the MIC was 1.95 µg/mL.

Take `Cc1ccc(C(C)C)cc1OC(=O)C[N+](C)(C)CCCCCCCCCC[N+](C)(C)CC(=O)Oc1cc(C(C)C)ccc1C` [Formula IV, N1,N10-bis(2-(5-isopropyl-2-methylphenoxy)−2-oxoethyl)-N1,N1,N10,N10-tetramethyldecane-1,10-diaminium dichloride]: the MIC in series [2] (Salmonella enterica) is 3.9 µg/mL; in series [2] (Salmonella enterica serovar Typhimurium ATCC 14028 (log 4 conditions)), 3.9; in series [3], 3.9 to 7.8 µg/mL. In addition, the CC50 in “in vitro” was greater than 120 µg/mL.

As for `Cc1ccc(C(C)C)c(OC(=O)C[N+](C)(C)CCCCCCCCCC[N+](C)(C)CC(=O)Oc2cc(C)ccc2C(C)C)c1` [Formula V, N1,N10-bis(2-(2-isopropyl-5-methylphenoxy)−2-oxoethyl)-N1,N1,N10,N10-tetramethyldecane-1,10-diaminium dichloride], the MIC in series [4] is 0.98 µg/mL; in series [3] it was 3.9 to 7.8 µg/mL. Also, the “MIC (Table 11, head not given)” value in series [5] is 3.9-7.8.

In turn, `Cc1ccc(C(C)C)c(OC(=O)C[N+](C)(C)CCCCCCCCCC[N+](C)(C)CCCCCCCCCC[N+](C)(C)CC(=O)Oc2cc(C)ccc2C(C)C)c1` [Formula VII, N1-(2-(2-isopropyl-5-methylphenoxy)−2-oxoethyl)-N10-(10-((2-(2-isopropyl-5-methylphenoxy)-2-oxoethyl)dimethylammonio)decyl)-N1,N1,N10,N10-tetramethyldecane-1,10-diaminium bromide dichloride] came in with an MIC in series [1] of 0.98 µg/mL.

As to `CN[C@H](CC(C)C)C(=O)N[C@H]1C(=O)N[C@@H](CC(N)=O)C(=O)N[C@H]2C(=O)N[C@H]3C(=O)N[C@H](C(=O)N[C@H](C(=O)O)c4cc(O)cc(O)c4-c4cc3ccc4O)[C@H](O)c3ccc(c(Cl)c3)Oc3cc2cc(c3O[C@@H]2O[C@H](CO)[C@@H](O)[C@H](O)[C@H]2O[C@H]2C[C@](C)(N)[C@H](O)[C@H](C)O2)Oc2ccc(cc2Cl)[C@H]1O` [Vancomycin, reference compound], the MIC in series [2] (Salmonella enterica) stood at 78 µg/mL (≈ 53.8 µM).

Source of the values: US12577196B2 (priority 2019, dated 2026).
